Data from ChEMBL document CHEMBL6087459 (J Med Chem, 2025).
The source made the active and inactive calls. The calls are words filed in the database; no cut-off is given here.

Assays:
Cryptosporidium parvum [1] = experiment: Antiparasitic activity against Cryptosporidium parvum Iowa oocyst infected in human HCT-8 cells assessed as reduction in asexual replication pre-infected with cells for 3 hrs followed by compound addition and measured after 48 hrs by staining based automated fluorescence microscopic analysis; assay type: functional, organism-based
HCT-8 [2] = experiment: Cytotoxicity against human HCT-8 cells assessed as reduction in cell numbers upto 50 uM incubated for 48 hrs by high-density microscopic celltiter aqueous assay; assay type: toxicity, cell-based; conditions: hct-8, 48 h
Cytochrome P450 2B6 = Cytochrome P450 2B6 (Homo sapiens, UniProt P20813); experiment: Inhibition of CYP2B6 (unknown origin) incubated for 20 mins by fast gradient LC-MS analysis
Chain of Cytochrome P450 2B6 (P20813 whole entry): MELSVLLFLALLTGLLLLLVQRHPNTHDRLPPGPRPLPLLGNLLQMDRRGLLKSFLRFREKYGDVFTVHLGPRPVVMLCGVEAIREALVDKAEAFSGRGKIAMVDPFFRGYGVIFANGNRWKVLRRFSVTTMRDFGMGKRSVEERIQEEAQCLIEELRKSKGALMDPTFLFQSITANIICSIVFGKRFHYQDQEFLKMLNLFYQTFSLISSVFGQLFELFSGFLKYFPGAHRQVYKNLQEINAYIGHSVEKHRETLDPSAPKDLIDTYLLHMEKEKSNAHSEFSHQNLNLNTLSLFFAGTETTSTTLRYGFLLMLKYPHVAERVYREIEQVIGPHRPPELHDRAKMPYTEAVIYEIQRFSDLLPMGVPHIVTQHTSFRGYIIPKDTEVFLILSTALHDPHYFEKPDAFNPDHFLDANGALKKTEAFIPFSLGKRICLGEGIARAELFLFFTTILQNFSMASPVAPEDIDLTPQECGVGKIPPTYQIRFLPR

Homo sapiens [3] = species on record: Homo sapiens; experiment: Inhibition of human PDE1B at 10 uM by Eurofins kinase assay relative to control
[4] = target: cGMP-dependent 3',5'-cyclic phosphodiesterase (Homo sapiens) (UniProt O00408); experiment: Inhibition of human PDE2A1 at 10 uM by Eurofins kinase assay relative to control
[5] = target: cGMP-inhibited 3',5'-cyclic phosphodiesterase 3A (Homo sapiens) (UniProt Q14432); experiment: Inhibition of human PDE3A at 10 uM by Eurofins kinase assay relative to control
Chain of cGMP-inhibited 3',5'-cyclic phosphodiesterase 3A (Homo sapiens) (Q14432 whole entry): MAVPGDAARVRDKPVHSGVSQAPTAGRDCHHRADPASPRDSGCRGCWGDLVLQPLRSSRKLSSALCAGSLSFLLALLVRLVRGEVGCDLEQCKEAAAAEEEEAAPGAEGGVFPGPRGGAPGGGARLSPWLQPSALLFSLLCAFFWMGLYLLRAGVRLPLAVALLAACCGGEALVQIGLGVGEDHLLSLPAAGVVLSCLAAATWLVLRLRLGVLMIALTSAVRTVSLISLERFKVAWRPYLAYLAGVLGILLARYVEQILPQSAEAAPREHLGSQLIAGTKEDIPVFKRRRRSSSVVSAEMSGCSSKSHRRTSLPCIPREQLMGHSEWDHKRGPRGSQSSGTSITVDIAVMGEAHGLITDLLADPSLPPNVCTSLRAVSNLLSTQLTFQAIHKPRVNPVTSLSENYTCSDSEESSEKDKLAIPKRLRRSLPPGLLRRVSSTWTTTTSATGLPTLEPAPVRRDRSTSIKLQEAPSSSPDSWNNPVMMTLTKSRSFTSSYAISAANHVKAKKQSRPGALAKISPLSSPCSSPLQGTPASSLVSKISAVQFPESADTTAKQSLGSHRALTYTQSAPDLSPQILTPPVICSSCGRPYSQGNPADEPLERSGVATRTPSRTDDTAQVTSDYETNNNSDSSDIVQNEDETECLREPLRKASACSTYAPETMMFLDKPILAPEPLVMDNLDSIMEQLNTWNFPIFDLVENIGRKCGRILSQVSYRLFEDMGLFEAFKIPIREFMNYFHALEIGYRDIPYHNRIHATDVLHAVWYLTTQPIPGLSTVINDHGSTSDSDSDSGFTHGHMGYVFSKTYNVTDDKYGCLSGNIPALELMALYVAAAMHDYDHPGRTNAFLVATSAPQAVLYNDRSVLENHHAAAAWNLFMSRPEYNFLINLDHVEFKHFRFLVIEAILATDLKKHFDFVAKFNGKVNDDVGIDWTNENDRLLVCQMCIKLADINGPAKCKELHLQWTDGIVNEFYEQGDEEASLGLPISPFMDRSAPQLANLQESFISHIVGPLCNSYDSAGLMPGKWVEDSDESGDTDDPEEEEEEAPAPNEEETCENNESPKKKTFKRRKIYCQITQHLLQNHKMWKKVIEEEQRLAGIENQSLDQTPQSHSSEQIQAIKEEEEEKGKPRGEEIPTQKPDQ

[6] = target: cGMP-inhibited 3',5'-cyclic phosphodiesterase 3B (Homo sapiens) (UniProt Q13370); experiment: Inhibition of human PDE3B at 10 uM by Eurofins kinase assay relative to control
Chain of cGMP-inhibited 3',5'-cyclic phosphodiesterase 3B (Homo sapiens) (Q13370 whole entry, looked up): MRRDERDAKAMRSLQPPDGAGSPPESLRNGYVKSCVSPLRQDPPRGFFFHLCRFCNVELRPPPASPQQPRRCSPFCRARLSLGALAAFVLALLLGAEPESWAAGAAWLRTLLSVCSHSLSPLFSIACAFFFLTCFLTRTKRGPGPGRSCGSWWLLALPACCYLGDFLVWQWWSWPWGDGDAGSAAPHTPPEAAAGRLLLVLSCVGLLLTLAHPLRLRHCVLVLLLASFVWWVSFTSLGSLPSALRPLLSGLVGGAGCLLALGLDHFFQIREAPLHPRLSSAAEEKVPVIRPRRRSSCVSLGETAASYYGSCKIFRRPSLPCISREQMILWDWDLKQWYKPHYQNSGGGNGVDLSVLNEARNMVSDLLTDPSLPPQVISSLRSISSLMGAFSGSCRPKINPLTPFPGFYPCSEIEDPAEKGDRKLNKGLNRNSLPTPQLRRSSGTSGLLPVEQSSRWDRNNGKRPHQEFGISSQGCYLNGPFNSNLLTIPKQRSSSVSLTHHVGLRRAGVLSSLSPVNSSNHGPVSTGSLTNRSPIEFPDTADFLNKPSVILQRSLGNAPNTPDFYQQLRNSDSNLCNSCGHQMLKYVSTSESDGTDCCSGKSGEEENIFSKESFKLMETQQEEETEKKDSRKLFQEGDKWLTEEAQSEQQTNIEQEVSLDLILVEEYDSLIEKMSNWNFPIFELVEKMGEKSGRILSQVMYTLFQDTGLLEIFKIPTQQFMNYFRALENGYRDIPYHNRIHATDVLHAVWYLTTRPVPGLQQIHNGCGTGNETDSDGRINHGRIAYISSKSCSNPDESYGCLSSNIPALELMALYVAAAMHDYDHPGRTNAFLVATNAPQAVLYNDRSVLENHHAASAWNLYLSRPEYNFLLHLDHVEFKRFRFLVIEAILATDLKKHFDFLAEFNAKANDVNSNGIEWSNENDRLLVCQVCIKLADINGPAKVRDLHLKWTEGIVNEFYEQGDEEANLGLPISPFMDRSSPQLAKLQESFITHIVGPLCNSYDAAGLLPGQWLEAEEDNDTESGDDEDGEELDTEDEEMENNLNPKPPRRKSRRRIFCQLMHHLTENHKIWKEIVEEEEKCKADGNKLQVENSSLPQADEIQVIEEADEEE

Homo sapiens [7] = species on record: Homo sapiens; experiment: Inhibition of human PDE4A1A at 10 uM by Eurofins kinase assay relative to control
[8] = target: 3',5'-cyclic-AMP phosphodiesterase 4B (Homo sapiens) (UniProt Q07343); experiment: Inhibition of human PDE4B1 at 10 uM by Eurofins kinase assay relative to control
Chain of 3',5'-cyclic-AMP phosphodiesterase 4B (Homo sapiens) (Q07343 whole entry): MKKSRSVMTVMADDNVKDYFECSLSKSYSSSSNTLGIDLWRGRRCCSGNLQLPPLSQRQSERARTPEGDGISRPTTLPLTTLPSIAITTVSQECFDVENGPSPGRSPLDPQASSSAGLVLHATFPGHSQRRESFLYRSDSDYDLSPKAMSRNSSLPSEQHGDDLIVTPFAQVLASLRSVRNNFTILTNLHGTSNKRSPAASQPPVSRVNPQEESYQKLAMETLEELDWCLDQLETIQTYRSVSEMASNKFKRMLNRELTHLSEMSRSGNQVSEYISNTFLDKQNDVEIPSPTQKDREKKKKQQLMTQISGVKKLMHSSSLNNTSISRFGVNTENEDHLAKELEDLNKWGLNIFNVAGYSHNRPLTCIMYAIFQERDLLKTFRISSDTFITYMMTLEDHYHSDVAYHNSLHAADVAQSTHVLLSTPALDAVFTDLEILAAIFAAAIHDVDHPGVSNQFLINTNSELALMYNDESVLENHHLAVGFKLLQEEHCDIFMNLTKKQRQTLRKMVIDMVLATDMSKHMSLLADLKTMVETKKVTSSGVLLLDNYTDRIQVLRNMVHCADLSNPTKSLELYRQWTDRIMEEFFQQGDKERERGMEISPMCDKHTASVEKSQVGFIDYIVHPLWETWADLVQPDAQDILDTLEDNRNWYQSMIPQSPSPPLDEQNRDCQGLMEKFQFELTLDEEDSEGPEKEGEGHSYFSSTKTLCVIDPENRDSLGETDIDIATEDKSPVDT

[9] = target: 3',5'-cyclic-AMP phosphodiesterase 4D (Homo sapiens, UniProt Q08499); experiment: Inhibition of human PDE4D2 at 10 uM by Eurofins kinase assay relative to control
Chain of 3',5'-cyclic-AMP phosphodiesterase 4D (Q08499 whole entry): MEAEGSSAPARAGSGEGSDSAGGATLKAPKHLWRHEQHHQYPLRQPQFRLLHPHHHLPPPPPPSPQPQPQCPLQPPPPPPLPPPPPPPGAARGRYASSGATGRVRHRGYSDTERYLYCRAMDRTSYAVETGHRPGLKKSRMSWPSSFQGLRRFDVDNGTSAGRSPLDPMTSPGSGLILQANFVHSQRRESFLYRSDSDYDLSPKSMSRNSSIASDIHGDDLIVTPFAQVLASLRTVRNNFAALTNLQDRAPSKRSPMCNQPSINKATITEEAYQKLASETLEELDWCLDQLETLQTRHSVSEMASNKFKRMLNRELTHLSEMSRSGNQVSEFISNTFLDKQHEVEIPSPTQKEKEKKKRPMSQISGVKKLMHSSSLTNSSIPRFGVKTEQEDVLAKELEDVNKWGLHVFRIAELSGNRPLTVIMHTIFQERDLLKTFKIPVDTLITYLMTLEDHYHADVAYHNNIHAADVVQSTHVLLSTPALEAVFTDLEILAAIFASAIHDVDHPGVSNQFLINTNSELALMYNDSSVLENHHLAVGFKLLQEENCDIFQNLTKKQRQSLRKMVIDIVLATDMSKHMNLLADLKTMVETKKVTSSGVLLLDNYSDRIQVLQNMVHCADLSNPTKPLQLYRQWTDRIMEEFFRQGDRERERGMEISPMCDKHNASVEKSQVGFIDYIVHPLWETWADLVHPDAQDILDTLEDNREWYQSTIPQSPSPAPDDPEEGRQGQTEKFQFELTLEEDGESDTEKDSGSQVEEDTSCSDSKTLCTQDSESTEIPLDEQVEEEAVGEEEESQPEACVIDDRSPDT

[10] = target: cGMP-specific 3',5'-cyclic phosphodiesterase (Homo sapiens) (UniProt O76074); experiment: Inhibition of human PDE5 at 10 uM by Eurofins kinase assay relative to control
Homo sapiens [11] = species on record: Homo sapiens; experiment: Inhibition of human PDE6 at 10 uM by Eurofins kinase assay relative to control
[12] = target: High affinity 3',5'-cyclic-AMP phosphodiesterase 7A (Homo sapiens) (UniProt Q13946); experiment: Inhibition of human PDE7A1 at 10 uM by Eurofins kinase assay relative to control
Chain of High affinity 3',5'-cyclic-AMP phosphodiesterase 7A (Homo sapiens) (Q13946 whole entry): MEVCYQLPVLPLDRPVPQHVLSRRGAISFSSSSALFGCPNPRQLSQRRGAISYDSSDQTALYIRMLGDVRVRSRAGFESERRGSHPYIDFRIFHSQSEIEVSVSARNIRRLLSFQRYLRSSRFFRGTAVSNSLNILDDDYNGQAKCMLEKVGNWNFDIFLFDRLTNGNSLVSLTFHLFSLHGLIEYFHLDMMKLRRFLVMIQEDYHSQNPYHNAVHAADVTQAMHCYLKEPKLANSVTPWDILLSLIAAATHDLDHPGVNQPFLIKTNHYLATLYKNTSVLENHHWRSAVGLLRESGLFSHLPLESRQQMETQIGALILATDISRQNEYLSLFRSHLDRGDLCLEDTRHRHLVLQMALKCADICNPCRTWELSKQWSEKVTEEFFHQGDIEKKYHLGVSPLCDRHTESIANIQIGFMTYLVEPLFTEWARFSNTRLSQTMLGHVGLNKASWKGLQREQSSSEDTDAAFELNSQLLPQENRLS

[13] = target: High affinity cAMP-specific and IBMX-insensitive 3',5'-cyclic phosphodiesterase 8A (Homo sapiens) (UniProt O60658); experiment: Inhibition of human PDE8A1 at 10 uM by Eurofins kinase assay relative to control
[14] = target: cAMP and cAMP-inhibited cGMP 3',5'-cyclic phosphodiesterase 10A (Homo sapiens) (UniProt Q9Y233); experiment: Inhibition of human PDE10A2 at 10 uM by Eurofins kinase assay relative to control
Cryptosporidium parvum [15] = experiment: Antiparasitic activity against Cryptosporidium parvum Iowa oocyst infected in NOD SCID gamma mouse model assessed as reduction in parasite fecal shedding at 50 mg/kg, po administered twice daily for 7 days starting from day 7 post infection and measured on day 21 by qPCR analysis; assay type: functional, organism-based; conditions: time 14.0 day
HCT-8 [16] = experiment: Cytotoxicity against human HCT-8 cells assessed as inhibition of cell proliferation at 25 to 50 uM incubated for 48 hrs by Celltiter aqueous assay; assay type: toxicity, cell-based; conditions: hct-8, 48 h, dose 25-50 µM
HCT-8 [17] = experiment: Cytotoxicity against human HCT-8 cells assessed as reduction in cell numbers at 25 uM incubated for 48 hrs by high-density microscopic celltiter aqueous assay relative to control; assay type: toxicity, cell-based; design: scale not given: the % may be the effect or the level left; conditions: hct-8, 48 h
HCT-8 [18] = experiment: Cytotoxicity against human HCT-8 cells assessed as reduction in cell numbers at 50 uM incubated for 48 hrs by high-density microscopic celltiter aqueous assay relative to control; assay type: toxicity, cell-based; design: scale not given: the % may be the effect or the level left; conditions: hct-8, 48 h
[19] = target: Dual 3',5'-cyclic-AMP and -GMP phosphodiesterase 11A (Homo sapiens) (UniProt Q9HCR9); experiment: Inhibition of human PDE11A at 10 uM by Eurofins kinase assay relative to control

Compound | EC50 (Cryptosporidium parvum [1]) [µM] | Activity (HCT-8 [2]) | other results
CCc1nn(C)c2nc(-c3ccc4c(c3)OCO4)nc(NCc3ccc(F)cc3)c12 | > 50 | Non-toxic | 
CCc1nn(C)c2nc(-c3ccc(P(=O)(O)O)cc3)nc(NCc3ccc(F)cc3)c12 | > 50 | Non-toxic | 
COC(=O)[C@H](c1ccccc1Cl)N1CCc2sccc2C1 [CLOPIDOGREL] |  |  | IC50 (Cytochrome P450 2B6): 0.2 µM
CCOC(=O)c1ccc(-c2nc(NCc3ccc(F)cc3)c3c(CC)nn(C)c3n2)cc1 | > 25 | Non-toxic | 
CCc1nn(C)c2nc(-c3ccc(C(N)=O)cc3)nc(NCc3ccc(F)cc3)c12 | 27 | Non-toxic | 
CCc1nn(C)c2nc(-c3ccc(Cl)c(Cl)c3)nc(NCc3ccc(F)cc3)c12 | 21 | Non-toxic | 
CCc1nn(C)c2nc(-c3cccc(OC)c3)nc(NCc3ccc(F)cc3)c12 | 15 | Non-toxic | 
CCc1nn(C)c2nc(-c3ccccc3)nc(NCc3ccc(F)cc3)c12 | 16 | Non-toxic | 
CCc1nn(C)c2nc(-c3ccc4c(c3)COB4O)nc(NCc3ccc(F)cc3)c12 |  | Non-toxic | inhibition (Homo sapiens [3]): -7.2%; inhibition [4]: 32%; inhibition [5]: 17%; inhibition [6]: 8%; inhibition (Homo sapiens [7]): 54%; inhibition [8]: 73%; inhibition [9]: 27%; inhibition [10]: 80%; inhibition (Homo sapiens [11]): 63%; inhibition [12]: 23%; inhibition [13]: 20%; inhibition [14]: -5.5%; Activity (Cryptosporidium parvum [15]): Active
CCc1nn(C)c2nc(-c3ccc(C#N)cc3)nc(NCc3ccc(F)cc3)c12 | > 25 | Non-toxic | 
CCc1nn(C)c2nc(-c3ccc(CO)cc3)nc(NCc3ccc(F)cc3)c12 | 16 | Non-toxic | 
CCc1nn(C)c2ncnc(NCc3ccc(F)cc3)c12 | > 50 | Non-toxic | 
CCc1nn(C)c2nc(-c3ccc4c(c3)COC4=O)nc(NCc3ccc(F)cc3)c12 | > 50 | Non-toxic | 
CCc1nn(C)c2nc(-c3cncnc3)nc(NCc3ccc(F)cc3)c12 | > 50 | Non-toxic | 
CCc1nn(C)c2nc(-c3ccc(OC)cc3)nc(NCc3ccc(F)cc3)c12 | 15 | Non-toxic | 
CCc1nn(C)c2nc(-c3ccc4c(c3)CNC4=O)nc(NCc3ccc(F)cc3)c12 | > 50 | Non-toxic | 
CC(=O)Oc1ccccc1C(=O)Nc1ncc([N+](=O)[O-])s1 [NITAZOXANIDE] |  | Non-toxic | 
CCc1nn(C)c2nc(C(=O)O)nc(NCc3ccc(F)cc3)c12 | > 50 | Non-toxic | 

More lines, main results first:

EC50 (Cryptosporidium parvum [1]) [µM] | Compound | Activity (HCT-8 [2]) | other results
4.7 | CCc1nn(C)c2nc(-c3ccc(C(=O)O)nc3)nc(NCc3ccc(F)cc3)c12 | Non-toxic | 
1.2 | CCc1nn(C)c2nc(-c3cccc(C(=O)O)c3)nc(NCc3ccc(F)cc3)c12 | Non-toxic | 
3.4 | CCc1nn(C)c2nc(-c3ccc(C(=O)O)c(F)c3)nc(NCc3ccc(F)cc3)c12 | Non-toxic | 
1.8 | CCc1nn(C)c2nc(C3=CCC(C(=O)O)CC3)nc(NCc3ccc(F)cc3)c12 (stereo not drawn) | Non-toxic | 
7.2 | CCc1nn(C)c2nc(-c3ccc(OC)c(OC)c3)nc(NCc3ccc(F)cc3)c12 | Non-toxic | 
4.4 | CCc1nn(C)c2nc(-c3ccc(C4CCC(C(=O)O)CC4)cc3)nc(NCc3ccc(F)cc3)c12 (stereo not drawn) | Non-toxic | 
9.5 | CCc1nn(C)c2nc(-c3ccc(CC(=O)O)cc3)nc(NCc3ccc(F)cc3)c12 | Non-toxic | 
8.6 | CCc1nn(C)c2nc(-c3ccncc3)nc(NCc3ccc(F)cc3)c12 | Non-toxic | 
5.5 | CCc1nn(C)c2nc(-c3ccc(S(C)(=O)=O)cc3)nc(NCc3ccc(F)cc3)c12 | Non-toxic | 
11 | CCc1nn(C)c2nc(-c3ccc(N4CCC(C(=O)O)CC4)cc3)nc(NCc3ccc(F)cc3)c12 | Non-toxic | 
5.8 | CCc1nn(C)c2nc(-c3ccc(-c4nnn[nH]4)cc3)nc(NCc3ccc(F)cc3)c12 | Non-toxic | 
5.5 | CCOC(=O)c1cccc(-c2nc(NCc3ccc(F)cc3)c3c(CC)nn(C)c3n2)c1 | Non-toxic | 
2.5 | CCc1nn(C)c2nc(-c3cccc(S(N)(=O)=O)c3)nc(NCc3ccc(F)cc3)c12 | Non-toxic | 
6.1 | CCc1nn(C)c2nc(-c3ccc4c(O)n[nH]c4c3)nc(NCc3ccc(F)cc3)c12 |  | Activity (HCT-8 [16]): Toxic; Activity (HCT-8 [17]): 78%; Activity (HCT-8 [18]): 89%
3 | CCc1nn(C)c2nc(-c3ccc4c(O)nn(C)c4c3)nc(NCc3ccc(F)cc3)c12 | Non-toxic | 
9.3 | CCc1nn(C)c2nc(CCC(=O)O)nc(NCc3ccc(F)cc3)c12 | Non-toxic | 
0.78 | CCc1nn(C)c2nc(-c3ccc(B(O)O)cc3)nc(NCc3ccc(F)cc3)c12 | Non-toxic | inhibition (Homo sapiens [3]): 31%; inhibition [4]: 95%; inhibition [5]: 62%; inhibition [6]: 45%; inhibition (Homo sapiens [7]): 93%; inhibition [8]: 96%; inhibition [9]: 91%; inhibition [10]: 73%; inhibition (Homo sapiens [11]): 98%; inhibition [12]: 62%; inhibition [13]: 29%; inhibition [14]: 24%; inhibition [19]: 82%; Activity (Cryptosporidium parvum [15]): Active
7.7 | CCc1nn(C)c2nc(-c3ccccc3OC)nc(NCc3ccc(F)cc3)c12 | Non-toxic | 
5.2 | CCc1nn(C)c2nc(-c3ccc(F)c(C(=O)O)c3)nc(NCc3ccc(F)cc3)c12 | Non-toxic | 
5 | CCc1nn(C)c2nc(-c3ccc(O)cc3)nc(NCc3ccc(F)cc3)c12 | Non-toxic | 
2.9 | CCc1nn(C)c2nc(-c3ccc(Nc4ccc(C(=O)O)cn4)cc3)nc(NCc3ccc(F)cc3)c12 | Non-toxic | 
4.5 | CCc1nn(C)c2nc(-c3c(C)noc3C)nc(NCc3ccc(F)cc3)c12 | Non-toxic | 
5.7 | CCc1nn(C)c2nc(-c3ccc(C(=O)N4CCNCC4)cc3)nc(NCc3ccc(F)cc3)c12 | Non-toxic | 
